Source: patent US12421260B2, “Neurokinin-1 antagonist” (SHANGHAI SHENGDI PHARMACEUTICAL CO., LTD, priority 2019, dated 2025)
Values after ≈ are worked out from the molar mass of the structure shown. Read-outs that look alike come from different tables or passages of the source.

How the values were obtained:
[1] = tested on: Red blood cells (RBC); test: Hemolytic effect (Test Example 8); type: cell-based, rabbits; conditions: rabbit red blood cell 2% suspension, PBS
Description: Red blood cells (RBC) were collected from the jugular vein or central ear artery of rabbits (10 ml of EDTA whole blood). The blood was put in a conical flask with glass beads and shaken for 10 minutes to remove fibrinogen, resulting in defibrinated blood. About 10 times the amount of sodium chloride solution was added to the defibrinated blood, which was then shaken well and centrifuged at 1500 rpm for 10 minutes. The supernatant was removed and the precipitated red blood cells were washed with sodium chloride injection for 3 times according to the above method, until the supernatant was observed colorless. The obtained red blood cells were prepared into a 2% (v/v) suspension with sodium chloride injection for later use.
The test samples (the compound of Example 5 and the compound of Example 19) were respectively dissolved in PBS (pH 7.4 or pH 5) and filtered to prepare 0.4 mg/ml, 0.8 mg/ml, 1.2 mg/ml, 1.6 mg/ml and 2 mg/ml solutions for later use.
A certain amount of test sample solution was added to the above […] for testing in the supernatant.
The sample should be further observed under a microscope, and if red blood cells can be seen as aggregated, then coagulation has occurred. The hemolytic effect of the compounds of the present disclosure was determined by using this method.

[2] = Water solubility (Test Example 1); type: physicochemical; conditions: aqueous buffer, thermodynamic from solid
Description: 1.1. Preparation of Reagents
The 100 mL strength reagents were prepared as follows:
pH=3.0: phosphate buffer solution: 100 ml of 20 mmol/L NaH2PO4, 0.1M H3PO4, adjusting pH to 3.0.
pH=4.0: phosphate buffer solution: 100 ml of 20 mmol/L NaH2PO4, 0.1M H3PO4, adjusting pH to 4.0. […]
An appropriate amount of test compound was accurately weighed. The solution was added at a small amount each time for several times and stirred until the compound was dissolved, and the content of the compound in the solution was determined.

[3] = Plasma stability test, conversion in fresh human plasma (Test Example 2); type: in vitro ADME; conditions: for Compound of Example 5 concentration in plasma: human plasma, 37° C.
Description: The compound of Example 5 and the compound of formula I.
Human fresh plasma was donated by volunteers with informed consent.
1.3 Preparation of Solution of the Compound
A certain amount of the compound of Example 5 was weighed and DMSO was added to prepare a 30 mM stock solution. A certain volume of the stock solution was diluted with DMSO to prepare solution I at a concentration of 1600 μM. Then a certain volume of the 1600 μM solution I was diluted with 45% methanol to prepare working solution II at a concentration of 16 μM. The 30 mM stock solution and the 1600 μM solution […] for the compound of formula I were also prepared by the above method.
(§1) 5 μL of the 16 μM working solution of the compound of Example 5 was added to 75 μL plasma at a final concentration of 1 μM. The samples were incubated in a 37° C. water bath for 0, 15, 30, 60, 90, 120 and 180 min. After completion of the incubation, 240 μL of internal standard containing acetonitrile was added into the samples which was then shaken on a shaker at 800 rpm for 10 min and centrifuged at 3700 rpm at 4° C. for 20 min. The supernatant was analyzed by LC-MS, and the injection volume was 2 μL.
1.5 Preparation of Standard Curve
The previously 1600 μM solution I was diluted with acetonitrile to prepare the standard curve working solution with concentrations of 160, 400, 1600, 4000, 8000, 16000 and 32000 ng/mL. The concentration of QC working solution was 480, 1920 and 25600 ng/mL. 5 μL of the standard curve working solution and QC working solution were added to 75 μL plasma to obtain the standard curve samples with final concentrations of 10, 25, 100, 250, 500, 1000 and 2000 ng/mL and QC samples with final concentrations of 30, 120 and 1600 ng/mL. 240 μL of acetocyano containing the internal standard was then added into the samples quickly, which was then shaken in a shaker at 800 rpm for 10 min and centrifuged at 3700 rpm at 4° C. for 20 min. The supernatant was collected and analyzed by LC-MS, and the injection volume was 2 μL.
The standard curve of the compound of formula I and QC sample were prepared by the above method.

[4] = Chemical stability of the compounds (Test Example 1); type: physicochemical; conditions: purity loss after placing for 7 days; 4° C. and room temperature
Description: 2.1 Test of Stability of the Compounds
About 1 mg of sample was weighed into a vial, then the vial was placed in a vacuum bag and the bag was vacuumized. Then the bag was put into a container containing color-changing silica gel and sealed. Two parallel samples were prepared. Enough samples were prepared according to the sampling time point and placed at 4° C. and room temperature respectively.

[5] = Pharmacokinetic test in cynomolgus monkeys, Example 5 (Test Example 6); type: in vivo; conditions: for AUC(0-t) / Cmax / Tmax: cynomolgus monkey, iv 2 mg/kg Example 5
Description: Cynomolgus monkeys were used as the test animals. The plasma drug concentration at different time points after iv administration of the compound of Example 5 by injection was determined using LC/MS/MS method. The in vivo pharmacokinetic of the compound of the present invention in cynomolgus monkeys was studied, and the pharmacokinetic characteristics were evaluated.
A certain amount of the compound of Example 5 was weighed and prepared into a pH=4.0 solution by using 20 mmol/L sodium dihydrogen phosphate for later use.
The drug was administered by intravenous with injection time of about 30 min, administration dose of 2 mg/kg, administration concentration of 0.4 mg/ml and administration volume of 5 ml/kg.
(§2) Blood was collected from the femoral vein before administration and 5 min, 0.25 h, 0.5 h, 1 h, 2 h, 4 h, 6 h, 8 h, 10 h, 24 h and 48 h after administration. About 0.6 ml of was collected for each sample, which was subject to anticoagulation using heparin sodium and placed on ice immediately after collection. The blood samples were placed in labeled centrifuge tubes after collection, and plasma was separated by centrifugation (centrifugation conditions: centrifugal force 2200 g, centrifugation at 2-8° C. for 10 min).
The content of the compound of Example 5 and rolapitant in plasma samples was determined by LC/MS/MS.

[6] = Metabolism in human plasma (Test Example 4); type: in vitro ADME; parameters: plasma concentration of the compounds of the examples: unit not given here
Description: as §1
(§3) The metabolism of the compounds of Example 1, Example 2 and Example 8 in the plasma of mouse, rat and human was determined by referring to the test method in Test Example 2.

[7] = Metabolism in plasma of mouse (Test Example 4); type: in vitro ADME; parameters: unit not given here
Description: as §1, §3

[8] = Metabolism in plasma of rat (Test Example 4); type: in vitro ADME; parameters: unit not given here
Description: as §1, §3

[9] = In vivo pharmacokinetic test in rats (Test Example 5); conditions: plasma, rat, intravenous bolus 2 mg/kg
Description: Rats were used as the test animals. The plasma drug concentration at different time points after administration of the compounds of Example 1 and Example 2 by injection was determined using LC/MS/MS method. The in vivo pharmacokinetic of the compounds in rats was studied, and the pharmacokinetic characteristics were evaluated.
A certain amount of the compounds of Example 1 and Example 2 were weighed and prepared into a pH=4.0 solution by using 20 mmol/L sodium dihydrogen phosphate for later use.
The drug was administered by intravenous bolus injection with an injection time of about 5 min, administration dose of 2 mg/kg, administration concentration of 0.4 mg/ml and administration volume of 5 ml/kg.
as §2, with “orbital” for “femoral”, “mL” for “ml of”, “sample” for “sample,”

Molecule: CC(C)[C@H](N)C(=O)OCOC(=O)N1C[C@@]2(CCC(=O)N2)CC[C@@]1(CO[C@H](C)c1cc(C(F)(F)F)cc(C(F)(F)F)c1)c1ccccc1 [Example 5]
- concentration with hemolytic effect [1]: ≥ 40000 ng/mL
- solubility ([2]; phosphate buffer, PH = 4): > 10000 µg/mL
- Compound of Example 5 concentration in plasma ([3]; 0 min, 1 μM start): 1 µM
- Compound of Example 5 concentration in plasma ([3]; 15 min): 0.53 µM
- Compound of Example 5 concentration in plasma ([3]; 30 min): 0.12 µM
- Compound of Example 5 concentration in plasma ([3]; 60 min): 0.01 µM
- Compound of Example 5 concentration in plasma ([3]; 90 min): 0.00 µM
- Compound of Example 5 concentration in plasma ([3]; 120 min): 0.00 µM
- Compound of Example 5 concentration in plasma ([3]; 180 min): 0.00 µM
- Chemical stability [4]: Good (purity reduced by <0.5% after placing for 7 days)
- in vivo transformation into rolapitant (in words) ([5]; cynomolgus monkeys, iv 2 mg/kg): most of the compound were rapidly transformed into the active metabolite rolapitant
- AUC(0-t) ([5]; plasma, analyte Example 5, read-out: AUC0-t): 0.77 ± 0.29 ng·h/mL
- Cmax ([5]; plasma, analyte Example 5, read-out: Cmax): 2.28 ± 0.39 ng/mL
- Tmax ([5]; plasma, analyte Example 5, read-out: Tmax): 6.6 ± 7.2 min

Molecule: C[C@@H](OC[C@@]1(c2ccccc2)CC[C@]2(CCC(=O)N2)CN1C(=O)OCCCOP(=O)(O)O)c1cc(C(F)(F)F)cc(C(F)(F)F)c1 [Example 2]
- conversion into rolapitant (in words) [6]: basically no convertion into rolapitant in human plasma, or only a slight conversion
- plasma concentration of the compounds of the examples [6]: 99.00
- solubility ([2]; PH = 5): 9050 µg/mL (≈ 13.3 mM)
- plasma concentration of the compounds of the examples [7]: 91.17
- plasma concentration of the compounds of the examples [8]: 97.70
- AUC(0-t) ([9]; read-out: AUC0-t of the compound of the example): 41.6 ng·h/mL
- AUC(0-inf) ([9]; read-out: AUC0-∞ of the compound of the example): 42.2 ng·h/mL
- MRT inf ([9]; read-out: MRT 0-∞ of the compound of the example): 4.38 min
- half-life ([9]; read-out: T1/2 of the compound of the example (converted)): 5.22 min
- Chemical stability [4]: Good (purity reduced by <0.5% after placing for 7 days)

Molecule: C[C@@H](OC[C@@]1(c2ccccc2)CC[C@]2(CCC(=O)N2)CN1C(=O)OCOP(=O)(O)O)c1cc(C(F)(F)F)cc(C(F)(F)F)c1 [Example 19]
- concentration with no hemolytic effect [1]: up to 2 mg/ml

Molecule: (5S,8S)-8-[{(1R)-1-(3,5-bis-(trifluoromethyl)phenyl)-ethoxy}-methyl]-8-phenyl-1,7-diazaspiro[4.5]dec-2-one [Rolapitant, reference compound]
- Compound of formula 1 concentration formed from Example 5 ([3]; human plasma incubated with 1 μM Example 5, 0 min): 0.00 µM
- Compound of formula 1 concentration formed from Example 5 ([3]; human plasma incubated with 1 μM Example 5, 15 min): 0.78 µM
- Compound of formula 1 concentration formed from Example 5 ([3]; human plasma incubated with 1 μM Example 5, 30 min): 1.18 µM
- Compound of formula 1 concentration formed from Example 5 ([3]; human plasma incubated with 1 μM Example 5, 60 min): 1.22 µM
- Compound of formula 1 concentration formed from Example 5 ([3]; human plasma incubated with 1 μM Example 5, 90 min): 1.31 µM
- Compound of formula 1 concentration formed from Example 5 ([3]; human plasma incubated with 1 μM Example 5, 120 min): 1.28 µM
- Compound of formula 1 concentration formed from Example 5 ([3]; human plasma incubated with 1 μM Example 5, 180 min): 1.02 µM
- AUC(0-t) ([5]; analyte rolapitant): 4326.87 ± 1820.65 ng·h/mL
- Cmax ([5]; analyte rolapitant): 315.25 ± 97.08 ng/mL
- Tmax ([5]; analyte rolapitant): 8.4 ± 6 min

Molecule: C[C@@H](OC[C@@]1(c2ccccc2)CC[C@]2(CCC(=O)N2C(=O)CCC(=O)O)CN1)c1cc(C(F)(F)F)cc(C(F)(F)F)c1 [Example 8]
- conversion rate into rolapitant [6]: ~46%
- plasma concentration of the compounds of the examples [6]: 54.54
- solubility ([2]; PH = 5): 1370 µg/mL (≈ 2.28 mM)
- plasma concentration of the compounds of the examples [7]: 61.67
- plasma concentration of the compounds of the examples [8]: 59.89
- Chemical stability [4]: Moderate (purity reduced by 0.5%~2.0% after placing for 7 days)
